Assay results as given in patent US20260265199A1, “CRYSTALLINE FORMS OF (R)-2-AMINO-5-(4-(2-(3,5-DIFLUOROPHENYL)-2-HYDROXYACETAMIDO)-2-METHYLPHENYL)-N-ISOPROPYLNICOTINAMIDE AND METHODS FOR USING THE SAME” (HIBERCELL, INC., priority 2023, published 2026).
Entries after “also recorded” stand apart in the source; their conditions may differ. Like-named read-outs stand apart in the source and are kept apart here.

Columns and labels:
Format in all cases: physicochemical
[1] = Solubility study of Form A of the compound of formula (I) in solvents (aliquot addition, visual); conditions: thermodynamic from solid, room temperature, read-out: Approximate Solubility
Experimental: A solubility study of Form A in various solvent systems was conducted according to the following protocol: aliquots of the test solvent systems were added to weighed samples of Form A, prepared according to Example 27, at room temperature. The resulting mixtures were sonicated between solvent additions to facilitate dissolution. Complete dissolution of the test material was determined visually. The solubility was estimated based on the total solvent used to provide complete dissolution.

[2] = Water activity study of Form A of the compound of formula (I); conditions: for Result (XRPD of solids): ambient; for Solid form (XRPD) after storage in solvent mixture: ambient conditions
Experimental: The water activity study was conducted using the following protocol: solutions were prepared by adding a sufficient amount of Form A, prepared according to Example 27, to a given solvent mixture such that excess solids were present. The mixture was then agitated for a predetermined period of time (Table 31) in a sealed vial under ambient conditions. After agitation, the solids were isolated for analysis and characterized using XRPD.

[3] = Dynamic vapor sorption (5% to 95% RH, Example 26 method)
Experimental: Automated vapor sorption (VS) data were collected on a Surface Measurement System DVS Intrinsic instrument, or a VTI SGA-100 instrument. Samples were not dried prior to analysis. Sorption and desorption data were collected over a range from 5% to 95% RH at 10% RH increments under a nitrogen purge. The equilibrium criterion used for analysis was less than 0.0100% weight change in 5 minutes with a maximum equilibration time of 3 hours. Data were not corrected for the initial moisture content of the samples.

[4] = Relative humidity stressing of Form D; conditions: ambient

Cc1cc(NC(=O)[C@H](O)c2cc(F)cc(F)c2)ccc1-c1cnc(N)c(C(=O)NC(C)C)c1 [Form A of the compound of formula (I), (R)-2-amino-5-(4-(2-(3,5-difluorophenyl)-2-hydroxyacetamido)-2-methylphenyl)-N-isopropylnicotinamide]
solubility ([1]; organic solvent or mixture, acetone): > 115 mg/mL
solubility ([1]; organic solvent or mixture, acetonitrile): 12 mg/mL
solubility ([1]; organic solvent or mixture, chloroform): < 3 mg/mL
solubility ([1]; organic solvent or mixture, diethyl ether): < 2 mg/mL
solubility ([1]; organic solvent or mixture, ethanol): 49 mg/mL
solubility ([1]; organic solvent or mixture, ethyl acetate): 26 mg/mL
solubility ([1]; organic solvent or mixture, heptane): < 3 mg/mL
solubility ([1]; organic solvent or mixture, isopropyl alcohol): 14 mg/mL
solubility ([1]; organic solvent or mixture, methanol): 103 mg/mL
solubility ([1]; organic solvent or mixture, tetrahydrofuran): > 150 mg/mL
solubility ([1]; organic solvent or mixture, toluene): < 4 mg/mL
solubility ([1]; water): < 3 mg/mL
Result (XRPD of solids) ([2]; IPA/water 90:10 v/v, 0.67 aw, 27 days): Form H
Result (XRPD of solids) ([2]; MeCN/water 92:8 v/v, 0.82 aw, 4 days): Form C
Solid form (XRPD) after storage in solvent mixture ([2]; acetonitrile/water (92:8 v/v), four days): Form C
Solid form (XRPD) after storage in solvent mixture ([2]; isopropanol/water (90:10 v/v), 27 days): Form H
Solid form (XRPD) after storage in solvent mixture ([2]; isopropanol/water (94:6 v/v), four days): mixture of Form A and Form H
Result (XRPD of solids) ([2]; water/acetone 80:20 v/v, 0.96 aw, 4 days): Form A*
Solid form (XRPD) after storage in solvent mixture ([2]; water/acetone (80:20 v/v), four days): Form A

Cc1cc(NC(=O)[C@H](O)c2cc(F)cc(F)c2)ccc1-c1cnc(N)c(C(=O)NC(C)C)c1 [Form D, (R)-2-amino-5-(4-(2-(3,5-difluorophenyl)-2-hydroxyacetamido)-2-methylphenyl)-N-isopropylnicotinamide]
Solid form recovered from the DVS experiment (XRPD) [3]: remained as Form D
Weight gain and loss through the sorption/desorption cycle (DVS) ([3]; 5 to 95% RH): approximately 1.9%
Hygroscopicity (DVS) ([3]; from 5 to 95% RH): limited hygroscopicity
Observation ([4]; 75% RH, 4 days): Free flowing
Result (XRPD form) ([4]; 75% RH, 4 days): remained physically stable; also recorded: Form D
Observation ([4]; 97% RH, 20 days): Free flowing
Result (XRPD form) ([4]; 97% RH, 20 days): no phase changed had occurred; also recorded: remained physically stable; also recorded: Form D
